Drawing on PMC9820377, “Molecular Characterization and Expression Patterns of Two Pheromone-Binding Proteins from the Diurnal Moth Phauda flammans (Walker) (Lepidoptera: Zygaenoidea: Phaudidae)” (International Journal of Molecular Sciences, 2022), this text covers Ki and IC50 for two compounds.

Each structure is given as a SMILES string.

Experiment [1] deals with PflaPBP1 (Phauda flammans, UniProt A0A6M6RBM3). Nature of the experiment: Fluorescence competitive binding assay with 1-NPN probe, PflaPBP1. The following applies: recombinant protein 2 µM, 1-NPN 2 µM, 50 mM Tris-HCl buffer; for Ki: calculated from IC50 and K1-NPN, pH 7.4; for IC50: pH 7.4, room temperature. The protocol: (§1) An RF-5301PC fluorescence spectrophotometer (Shimadzu, Kyoto, Japan) was used in this experiment for fluorescence competitive binding analysis with a 1-cm quartz colorimetric cup at room temperature. N-Phenyl-1-naphthylamine (1-NPN) was used as the probe and applied for the suitability test. The 1-NPN was excited at 337 nm, in which the emission spectra were recorded between 350 and 660 nm. The purified PflaPBP1 and PflaPBP2 were diluted to a final concentration of 2 µM of the protein solution in Tris-HCl buffer and titrated with aliquots of 1 mM 1-NPN dissolved in methanol, which were 0, 2, 4, 8, 12, 16, 20 µM. The maximum fluorescence value (manipulate peak pick) of each excitation was recorded. The binding data were obtained from three independent measurements. The dissociation constants of PflaPBP1/PflaPBP2 for 1-NPN were calculated from Scatchard plots of the binding data by using Prism 5 software (GraphPad, La Jolla, CA, USA) with nonlinear regression for the one site-specific binding method.
PflaPBP1, sequence (A0A6M6RBM3 entry or part of it): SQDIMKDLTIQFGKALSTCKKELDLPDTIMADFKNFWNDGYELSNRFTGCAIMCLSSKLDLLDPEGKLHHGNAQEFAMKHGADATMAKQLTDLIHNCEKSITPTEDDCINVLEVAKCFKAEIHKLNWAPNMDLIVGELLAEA
(§2) The two sex pheromones Z-9-hexadecenal (Z9H, 96.3% chemical purity) and (Z, Z, Z)-9,12,15-octadecatrienal (Z9O, 93% chemical purity) were obtained from Shanghai T & W Pharmaceutical Co., Ltd. (Shanghai, China) and Pherobank BV (Wijk bij Duurstede, The Netherlands). The competitive binding of these two sex pheromone components was measured using 1-NPN (2 µM) as the fluorescent probe with a stoichiometry of 1:1 (protein: ligand). PflaPBP1 or PflaPBP2 was titrated to a final concentration of 2 μmol/L with 50 mM Tris-HCl buffer. The sex pheromone dissolved in methanol was gradually added to the mixed solution of protein and 1-NPN with the final concentration of each ligand added to the sample ranging from 0 μM to 20 μM. All sets of fluorescence spectrophotometers were the same as above. The binding data were obtained from three independent measurements. […] The following formula was adopted to calculate the binding affinities (Ki): Ki=[IC50]/1+[1−NPN/K1−NPN] ) where [1-NPN] is the free concentration of 1-NPN, [IC50] is the ligand concentration replacing 50% of the fluorescence reporter, and K1-NPN is the dissociation constant of the PflaPBP/1-NPN complex. The data were fitted with nonlinear regression model using Prism software (version 5.0).

The target of experiment [2] is PflaPBP2 (Phauda flammans, UniProt A0A6M6R985). Description: Fluorescence competitive binding assay with 1-NPN probe, PflaPBP2. The note with it: recombinant protein 2 µM, 1-NPN 2 µM, 50 mM Tris-HCl buffer; for Ki: calculated from IC50 and K1-NPN, pH 7.4; for IC50: pH 7.4, room temperature. The protocol: as §1
PflaPBP2, sequence (A0A6M6R985 entry or part of it): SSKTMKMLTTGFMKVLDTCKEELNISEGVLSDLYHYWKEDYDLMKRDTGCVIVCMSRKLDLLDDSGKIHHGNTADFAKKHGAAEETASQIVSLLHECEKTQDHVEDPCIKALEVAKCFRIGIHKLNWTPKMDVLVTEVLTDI
as §2, with “The sex pheromone dissolved in methanol was gradually added to the mixed solution of protein and 1-NPN with the final concentration of each ligand added to the sample ranging from 0 μM to 20 μM.” left out

For `CCCCCC/C=C\CCCCCCCC=O` [Z-9-hexadecenal], in experiment [1], the Ki is 21.3 µM and the IC50 was determined as 29.1 µM. Moreover, in experiment [2], the Ki was 109 µM and the half-maximal inhibitory concentration (IC50) is 149 µM.

Regarding `CC/C=C\C/C=C\C/C=C\CCCCCCCC=O` [(Z, Z, Z)-9, 12, 15-octadecatrienal], the results for the Ki in experiment [1] and in experiment [2] were 38.5 µM and 24.8 µM, respectively. For the same compound, the IC50 in experiment [1] was 52.7 µM; in experiment [2], 34 µM.

One may read the Ki as the equilibrium dissociation constant of an inhibitor or competing ligand from its target. For orientation: IC50 means the concentration needed to halve the response being measured.
